For assay [1], the system named is rat infarct model. The assay is described as follows: rat infarct model, infarct size. It is filed as in vivo. The settings on record: ATV 2 mg/kg/d, cilostazol 20 mg/kg/d, alone or combined. As for the experimental part:
The effects of cilostazol (Pletal) and atorvastatin on myocardial protection was measured in a rat infarct model. Pletal is a phosphodiesterase III inhibitor, thus increasing intracellular cAMP levels. cAMP activates PKA. ATV at 2 mg/kg/d had no effect. Cilostazol 20 mg/kg/d reduced infarct size. However, when combined with ATV 2 mg/kg/d the effect was much greater. There are 8 rats in the control and ATV 2 mg/kg/d groups and 6 rats in the cilostazol and the combination groups. Infarct size in the ATV 2 mg/kg/d (30.48±1.46%) is not different from the controls (33.97±2.76%).

The subject of assay [2] is 5LO mRNA. The assay is described as follows: rtPCR of 5LO mRNA in adult rat cardiomyocytes. Format: cell-based. As for the experimental part:
(§1) Cardiac myocytes were isolated from adult Sprague-Dawley rats (250-300 g, male). Animals were heparinized (1,000-2,000 units i.p.) 5 min before being anesthetized with ketamine (100 mg/kg) and xylazine (10 mg/kg), and the hearts were removed and placed in ice-cold heart media solution (in mmol/l: 112 NaCl, 5.4 KCl, 1 MgCl2, 9 NaH2PO4, and 11.1 D-glucose; supplemented with 10 HEPES, 30 taurine, 2 DL-carnitine, and 2 creatine, pH. 7.4). The hearts were perfused retrogradely in a Langendorff apparatus with Ca^2+-free heart media for 5 min at 5 ml/min at 37° C., followed by perfusion with Ca^2+-free heart media containing collagenase II, 210 U/mg (Worthington, Lakewood, N.J.) for 20 min. After perfusion, both ventricles were removed from the heart and minced in collagenase II-containing heart media for 10-15 min. The cell solution was then washed several times to remove collagenase II and reexposed to 1.2 mM Ca2^+ over 25 min to produce Ca2^+-tolerant cardiac myocytes. Myocytes were then plated in 4% FBS on laminin (2 μg/cm^2)-coated plates for 1 h and incubated at 37° C. in 5% CO2 for 12-24 h before experiments (21). Cells were incubated with 1) vehicle (0.07% ethanol); 2) PIO (10 μM)+ATV (10 μM); 3) H-89 (0.1 μM); or 4) PIO+ATV+H-89 for 12 hours. The supernatants were collected directly for LTB4 analyses by ELISA and the cells were harvested for immunoblotting. In addition, cells were plated in 8-chamber slides, received the same treatment as above and were used for immunohistochemical staining.
Equal amounts of total cellular RNA were reverse-transcribed with oligo(dT) primer by use of AMV Reverse Transcriptase (Applied Biosystems). Transcribed cDNAs (40 ng) were used for Real Time PCR with specific primers: rat ALOX5. […] The Ct (threshold cycle) is defined as the number of cycles required for the fluorescence signal to exceed the detection threshold. Expression of the ALOX5 relative to the GAPDH was calculated as the different between the threshold values of these two genes. […]

Assay [3] deals with 5LO. The assay is described as follows: immunofluorescence of 5LO in adult rat cardiomyocyte cultures. Format: cell-based. The settings on record: PIO 10 μM, ATV 10 μM, H-89 0.1 μM, 12 hours. As for the experimental part: as §1, with “Myocytes were then plated in 4% FBS on laminin (2 μg/cm^2)-coated plates for 1 h and incubated at 37° C. in 5% CO2 for 12-24 h before experiments (21). Cells were incubated with 1) vehicle (0.07% ethanol); 2) PIO (10 μM)+ATV (10 μM); 3) H-89 (0.1 μM); or 4) PIO+ATV+H-89 for 12 hours. The supernatants were collected directly for LTB4 analyses by ELISA and the cells were harvested for immunoblotting. In addition, cells were plated in 8-chamber slides, received the same treatment as above and were used for immunohistochemical staining.” left out
(§2) Immunofluorescent labeling was performed on paraffin sections (5-μm) of 4% formaldehyde-fixed rat cardiac tissue, as described previously (22). […] All the slides were viewed under an Olympus BX51 microscope [images recorded by a DP70 Digital camera (Olympus Optical Co., Ltd., Tokyo, Japan)] or confocal microscope (Bio-Rad 2100 (Hercules, Calif.).

Assay [4] relates to 5LO (P-5LO). The assay is described as follows: immunoblotting of 5LO and P-5LO in adult rat cardiac myocyte cultures. Format: cell-based. The note with it: H-89 0.1 μM with PIO+ATV. The method, then:
(§3) Cardiac myocytes were isolated from adult Sprague-Dawley rats (250-300 g, male). Animals were heparinized (1,000-2,000 units i.p.) 5 min before being anesthetized with ketamine (100 mg/kg) and xylazine (10 mg/kg), and the hearts were removed and placed in ice-cold heart media solution (in mmol/l: 112 NaCl, 5.4 KCl, 1 MgCl2, 9 NaH2PO4, and 11.1 D-glucose; supplemented with 10 HEPES, 30 taurine, 2 DL-carnitine, and 2 creatine, pH. 7.4). The hearts were perfused retrogradely in a Langendorff apparatus with Ca^2+-free heart media for 5 min at 5 ml/min at 37° C., followed by perfusion with Ca^2+-free heart media containing collagenase II, 210 U/mg (Worthington, Lakewood, N.J.) for 20 min. […]
The hearts were rapidly explanted, rinsed in cold PBS (pH 7.4), containing 0.16 mg/ml heparin to remove red blood cells and clots, frozen in liquid nitrogen and stored at −70° C. […] The supernatant was collected and the total protein concentration was determined using the Lowry protein assay. […] The protein samples with loading buffer were run in 4-20% Tri-HCl Ready Gel at a 100V for 2 h until the desired molecular weight bands were separated. […] The protein signals were quantified by an image-scanning-densitometer and the strength of each protein signal was normalized to the corresponding b-actin stain signal. Data are expressed as a ratio between the protein and the corresponding b-actin signal density.
On the technique in general: A western blot detects proteins with antibodies after separation by electrophoresis.

The subject of assay [5] is COX2. The assay is described as follows: immunofluorescence of COX2 in adult rat cardiac myocytes. It is filed as cell-based. As for the experimental part: as §3, with “min. After perfusion, both ventricles were removed from the heart and minced in collagenase II-containing heart media for 10-15 min. The cell solution was then washed several times to remove collagenase II and reexposed to 1.2 mM Ca2^+ over 25 min to produce Ca2^+-tolerant cardiac myocytes.” for “min.”
as §2

Entries after “also recorded” stand apart in the source; their conditions may differ.

Turning to `CC(C)c1c(C(=O)Nc2ccccc2)c(-c2ccccc2)c(-c2ccc(F)cc2)n1CCC(O)CC(O)CC(=O)O` (centres unmarked) [ATV, 7-[2-(4-fluorophenyl)-5-(1-methylethyl)-3-phenyl-4-(phenylcarbamoyl)-1H-pyrrol-1-yl]-3,5-dihydroxy-heptanoic acid], in assay [1], the Infarct size came to 30.48±1.46% and the “effect on infarct size (in words)” value was “no effect”. In assay [2], the “5LO mRNA levels in the cardiomyocytes” value was “did not affect”.
For the molecule `O=S(=O)(NCCNC/C=C/c1ccc(Br)cc1)c1cccc2cnccc12` [H-89], the “5LO expression and localization in cardiomyocytes” value in assay [3] was “no effect”. In addition, in assay [4], the “effect on the 5LO phosphorylation by PIO+ATV” value is listed as “almost completely blocked”. For the same molecule, in assay [2], the “5LO mRNA levels in the cardiomyocytes” value is listed as “did not affect”. Also, in assay [5] (H-89 0.1 μM with PIO+ATV), the “effect on the increased expression of COX2 by PIO+ATV” value is “did not affect; also recorded: no effect”. Also, the COX2 expression entry in assay [5] (PIO 10 μM, ATV 10 μM, H-89 0.1 μM, 12 hours) is recorded as “no effect”.
